# Target: SRC (Homo sapiens, UniProt P12931)
# Assay: inhibition of SRC autophosphorylation (pY419) in cells, Western blot
# Assay type: cell-based
# Sequence of SRC (P12931 2-536): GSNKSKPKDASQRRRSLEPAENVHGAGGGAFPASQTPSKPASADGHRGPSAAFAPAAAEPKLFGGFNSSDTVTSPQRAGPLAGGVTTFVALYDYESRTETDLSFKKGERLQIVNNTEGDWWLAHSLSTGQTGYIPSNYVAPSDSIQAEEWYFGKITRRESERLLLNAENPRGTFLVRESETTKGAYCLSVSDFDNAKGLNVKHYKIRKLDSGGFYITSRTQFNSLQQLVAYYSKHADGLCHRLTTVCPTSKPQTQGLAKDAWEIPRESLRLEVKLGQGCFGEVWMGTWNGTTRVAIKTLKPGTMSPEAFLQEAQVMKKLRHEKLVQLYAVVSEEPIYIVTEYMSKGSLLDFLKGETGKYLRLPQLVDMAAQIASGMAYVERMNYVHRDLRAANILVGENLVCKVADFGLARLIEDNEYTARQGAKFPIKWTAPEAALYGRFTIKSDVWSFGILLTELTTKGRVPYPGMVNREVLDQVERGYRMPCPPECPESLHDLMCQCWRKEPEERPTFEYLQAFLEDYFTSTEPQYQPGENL
smiles,measurement,value
COc1cc(Nc2c(C#N)cnc3cc(OCCCN4CCN(C)CC4)c(OC)cc23)c(Cl)cc1Cl [bosutinib],"inhibition of SRC autophosphorylation (pY419) in cells, Western blot",Bosutinib and saracatinib displayed weaker inhibition of SRC autophosphorylation in all the cell lines tested
